Measurements reported in PubChem BioAssay (NCI).
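These data come from cells grown in 96-well plates and exposed to compound for 48 hours at five concentrations. TGI is the concentration that stops growth completely.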

Assays:
Experiment in all cases: NCI anticancer screen, dose series, 48 h
BT-549 breast = tested on: BT-549 breast
HS 578T breast = tested on: HS 578T breast
MDA-MB-231 breast = tested on: MDA-MB-231 breast
SK-MEL-2 melanoma = tested on: SK-MEL-2 melanoma
SW-620 colon = tested on: SW-620 colon
SF-268 CNS = tested on: SF-268 CNS
NCI-H522 lung = tested on: NCI-H522 lung
SF-539 CNS = tested on: SF-539 CNS
NCI-H23 lung = tested on: NCI-H23 lung
K-562 leukemia = tested on: K-562 leukemia
KM12 colon = tested on: KM12 colon
NCI/ADR-RES ovarian = tested on: NCI/ADR-RES ovarian
PC-3 prostate = tested on: PC-3 prostate
A498 renal = tested on: A498 renal
SNB-19 CNS = tested on: SNB-19 CNS
IGROV1 ovarian = tested on: IGROV1 ovarian
ACHN renal = tested on: ACHN renal
SR leukemia = tested on: SR leukemia
EKVX NSCLC = tested on: EKVX NSCLC
OVCAR-4 ovarian = tested on: OVCAR-4 ovarian

Measured: TGI

COc1ccc(OC)c([N+](=O)[O-])c1-c1nc2sccn2c1/C=N/N=C(N)N
92.6 µM: HS 578T breast
93.2 µM: SK-MEL-2 melanoma
81.5 µM: KM12 colon
not listed: OVCAR-4 ovarian
> 100 µM: all other assays above

CCCCCCCC(=O)OC[n+]1ccc(-c2c(COC(=O)NC(C)C)c(COC(=O)NC(C)C)c3n2CCC3)cc1
> 56 µM: SR leukemia
> 94.1 µM: BT-549 breast
68.9 µM: ACHN renal
> 73.8 µM: SF-268 CNS
85.1 µM: A498 renal
60.8 µM: SW-620 colon
47.1 µM: SK-MEL-2 melanoma
> 59.6 µM: NCI-H522 lung
> 68.3 µM: IGROV1 ovarian
> 66.3 µM: SF-539 CNS
> 100 µM: all other assays above

Nc1ccc(-c2ncc3cc(-c4cccc(-c5cc6cnc(-c7ccc(N)cc7)nc6c6ccccc56)c4)c4ccccc4c3n2)cc1
not listed: OVCAR-4 ovarian
> 100 µM: all other assays above

CO[C@H]1O[C@@H]2CO[C@@H](c3ccccc3)O[C@H]2[C@@H]2CC=CCC[C@]12O
51 µM: SF-268 CNS
92.7 µM: A498 renal
18.2 µM: HS 578T breast
69 µM: BT-549 breast
31 µM: NCI-H522 lung
not listed: SF-539 CNS
> 100 µM: all other assays above

CCC[C@H](O)[C@@H](CNc1cc(NC(C)=O)nc(NC(C)=O)n1)N(Cc1ccccc1)Cc1ccccc1
27.2 µM: NCI-H522 lung
73.3 µM: NCI/ADR-RES ovarian
45.3 µM: EKVX NSCLC
33.5 µM: PC-3 prostate
35.9 µM: BT-549 breast
56.8 µM: ACHN renal
39.1 µM: KM12 colon
50.9 µM: IGROV1 ovarian
58.4 µM: NCI-H23 lung
not listed: SF-268 CNS | SF-539 CNS
> 100 µM: all other assays above

CN1CCC(CNC(=O)CCCCCCCCC(=O)NCC2(c3ccccc3)CCN(C)CC2)(c2ccccc2)CC1
57.6 µM: SF-268 CNS
48.8 µM: SF-539 CNS
38.8 µM: EKVX NSCLC
not listed: NCI-H23 lung
> 100 µM: all other assays above

CSc1c(C#N)c(O)n(-c2ccc(C)cc2)c(=O)c1C#N
not listed: ACHN renal
> 100 µM: all other assays above

CC1=C(C(=O)N[C@@H](Cc2ccccc2)C(=O)O)N2C(=O)[C@@H](NC(=O)[C@@H](N)CC(C)C)[C@H]2SC1
not listed: NCI-H23 lung
> 100 µM: all other assays above

C#CCn1c(=O)ccn(/C(=C\C(=O)OCC)C(=O)OCC)c1=O
> 100 µM: K-562 leukemia
36 µM: A498 renal
31.8 µM: NCI-H23 lung
41.9 µM: MDA-MB-231 breast
36.4 µM: SNB-19 CNS
42.4 µM: SF-268 CNS
29.4 µM: PC-3 prostate
29.8 µM: IGROV1 ovarian
25.4 µM: BT-549 breast
32.5 µM: SK-MEL-2 melanoma
27.9 µM: EKVX NSCLC
48.8 µM: KM12 colon
33.3 µM: NCI/ADR-RES ovarian
4.64 µM: SF-539 CNS
> 43.5 µM: SR leukemia
5.37 µM: SW-620 colon
63.5 µM: HS 578T breast
3.08 µM: ACHN renal
7.3 µM: OVCAR-4 ovarian
